pEC50, pIC50: −log10 of the molar value.
How the values were obtained:
[1] = test system: cells; details: background statement; cited from earlier work
[2] = Storage stability / shelf-life; format: physicochemical
[3] = test system: Vero cells; assay: Cytotoxicity assay in Vero cells; format: cell-based
[4] = test system: HIV-1 (strain LAV-1); assay: Inhibition of virus replication in human PBMC (supernatant reverse transcriptase activity); format: cell-based; details: 50% inhibition of RT activity vs untreated controls, six days after infection
Procedure: (§1) Cells. Human peripheral blood mononuclear cells (PBMC) from healthy HIV-1 seronegative and hepatitis B virus seronegative donors were isolated by Ficoll-Hypaque discontinuous gradient centrifugation at 1,000×g for 30 minutes, washed twice in phosphate-buffered saline (pH 7.2; PBS), and pelleted at 300×g for 10 minutes. Before infection, the cells were stimulated by phytohemagglutinin […] at a concentration of 6 μg/ml for three days in RPMI 1640 medium supplemented with 15% heat-inactivated fetal calf serum, 1.5 mM L-glutamine, penicillin (100 U/ml), streptomycin (100 μg/ml), and 4 mM sodium bicarbonate buffer.
Viruses. HIV-1 (strain LAV-1) was obtained from Dr. P. Feorino (Centers for Disease Control, Atlanta, Ga.). […]
PBMC. […] The mean reverse transcriptase (RT) activity of the inocula was 50,000 decompositions per min/ml corresponding to about 100 TCID50, as determined by Groopman et al. (Groopman et al, AIDS Res. Human Retro. 3, 71-85, 1987. The drugs at twice their final concentration in 5 ml of RPMI 1640 medium, supplemented as described above, were added to the cultures. Uninfected and untreated PBMC at equivalent cell densities were grown in parallel as controls. The cultures were maintained in a humidified 5% CO2 -95% air incubator at 37° C. for six days after infection, at which point all cultures were sampled for supernatant reverse transcriptase (RT) activity. […]
The RT assay was performed in 96-well microtiter plates, as described by Spira et al. (Spira et al, J. Clin. Microbiol. 22, 97-99, 1987). […] Four ml of scintillation fluid (Econofluor, NEN Research Products, Boston, Mass.) were added and the amount of radioactivity in each sample was determined using a Packard Tri-Carb liquid scintillation analyzer (model 2,000CA). […]

[5] = test system: HSV-1; assay: Plaque reduction assay for herpes simplex in Vero cells; format: cell-based
Excerpt: Cell culture assays for herpes simplex.
Viruses. (HSV-1) Mycoplasma-free Vero cells, obtained from Flow Laboratory (McLean, Va.), were used for plaque assays.

[6] = test system: human PBMC; assay: Cytotoxicity assay in uninfected PHA stimulated human PBMC (trypan blue dye-exclusion); format: cell-based; details: 6 days, cell viability
Procedure: as §1
Cytotoxicity assay. The drugs were evaluated for their potential toxic affects on uninfected PHA stimulated human PBMC. Flasks were seeded so that the final cell concentration was 2×10^5 cells/mi. The cells were cultured with and without drug for 6 days, at which time aliquots were counted for cell viability, as assessed by the trypan blue dye-exclusion method using a hemacytometer. The median inhibitory concentration (IC50) was calculated using the median effect method (Chou et al, Elsevier-Biosoft, Elsevier Science Publishers, Cambridge, U.K., 1985; Chou et al, Adv. Enz. Regul. 22, 27-55, 1984). The results are reported as IC50 PBMC below.

[7] = test system: herpes virus; details: JP 64-38,022; cited from earlier work
[8] = compound abandoned; cited from earlier work
[9] = test system: HIV; details: Chemical and Engineering News, December 1986; cited from earlier work

Compound | pIC50 [3] | pEC50 [4] | pEC50 [5] | pIC50 [6] | other results
Cc1cn([C@H]2C[C@H](N=[N+]=[N-])[C@@H](CO)O2)c(=O)[nH]c1=O [AZT] | – | – | – | – | toxicity to cells [1]: high toxicity to cells
(Me4 N)9 P2 Nb3 W15 O62 !.15H2 O.CH3 CN | – | – | – | – | stability on storage [2]: stable on storage
(Me4 N/Na/K)5 Nb3 W3 O19 !.nH2 O [Me4 N/Na/K!5 Nb3 W3 O19 !] | < 4.00 | 5.07 | 5.25 | < 4.00 | –
(Na/K)6 Nb4 W2 O19 !.nH2 O [Na/K!6 Nb4 W2 O19 !] | < 4.00 | 7.14 | < 4.00 | < 4.00 | –
K5 BW12 O40 | – | – | – | – | activity against herpes virus [7]: activity against herpes virus
K7 PW10 Ti2 O40 | – | – | – | – | activity against herpes virus [7]: activity against herpes virus
Me3 NH!8 Si2 W18 Nb6 O77 ! | < 4.00 | 7.09 | < 6.00 | < 4.00 | –
silicotungstate acid [H4 SiW12 O40] | – | – | – | – | toxicity in higher animals [8]: toxicity in higher animals; activity against HIV [9]: has activity against HIV
